ChEMBL document CHEMBL1158135, “Sulfated alkenes from the echinus Temnopleurus hardwickii” (J Nat Prod, 2006)
pIC50: −log10 of the molar value.

Test system: P388
Test: Cytotoxicity against mouse P388 cells after 72 hrs by MTT assay
Format: functional, cell-based
Conditions: P388, 72 h

`CC(=O)CC(C)(C)N.CC(C)=CCC[C@@H](C)/C=C/CCOS(=O)(=O)O` showed a pIC50 of 3.54.
